Consider 1 substance from patent US11439657B2, “Cancer stem cell growth inhibitor using miRNA” (CancerStem Tech Inc., priority 2017, dated 2022).

Assay type in all cases: cell-based
For data set [1], the system named is human large bowel cancer cells (HT29 line, HCT116 line and DLD1 line). In words: Proliferation assay (absorbance at 450 nm over time). The note with it: HT29, HCT116 and DLD1 lines; 50 nM; culture for 96 hours; versus control miRNA; FIG. 13. As to the method: A cell suspension prepared by suspending human large bowel cancer cells (HT29 line, HCT116 line and DLD1 line) in DMEM medium (containing 10% by volume FBS) was seeded in each well of a 96-well plate at 3×10^3 cells/well, followed by culture at 37° C. overnight. Then, a mixture of lipofectamin RNAiMAX, Reagent (final concentration in each well: 0.03 μL/ml) and hsa-miR-3065-3p (final concentration in each well: 50 nM) was added for transfection. Subsequently, culture was carried out for 96 hours, and the absorbance at 450 nm was measured over time. In addition, tests were also performed wider the same condition on a case where a control miRNA (SEQ ID NO: 9) was used (control miRNA, negative control) in place of hsa-miR-3065-3p.
In FIG. 13, the time-course of relative values of the absorbance is shown, in which the relative values were determined when the absorbance after culture for 24 hours from transfection of hsa-miR-3065-3p was 1. […] This is because, as described above, among human large bowel cancer cells (HT29 line, HCT116 line and DLD1 line), cancer stem cells are present, so that hsa-miR-3065-3p is considered to intensively suppress proliferation of the cancer stem cells in particular, leading to the result.

In data set [2] the test system is human large bowel cancer cells (DLD1 line). In words: Wound healing assay. The note with it: 20 pmol/well, wound area at 24 and 48 hours, compared to the negative control, FIG. 17. How it is done:
Wound healing assay was performed using Culture-Insert (NIPPON Genetics Co, Ltd). In each well of a 24-well plate, 70 μl of cell suspension (4.9×10^4 cells/well) prepared by suspending human large bowel cancer cells (DLD1 line) in RPMI medium (containing 10% by volume FBS) and an insert that could create a constant gap of 0.5±0.05 mm in width between cells were placed, followed by culture for 1 day, so that a single layer of cells and an area where there is no cell (wound area) corresponding to the gap were formed at the bottom of the well. Then, the insert and culture supernatant were remove, 500 μl of DMEM medium (serum free) was added to each well, and further a mixture of lipofectamin RNAiMAX Regent (final concentration in well: 2 μl/well) and hsa-miR-3065-3p (final concentration in well: 20 pmol/well) was added, followed by culture for 1 day. Thereafter, the medium was changed to RPMI medium (containing 10% by volume FBS), followed by culture for 48 hours. The culture using RPMI medium (containing 10% by volume FBS) had the medium replaced with a fresh medium at 24 hours after the start of culture. The area of wound area was determined at 0, 24 and 48 hours from the start of culture using RPMI medium (containing 10% by volume FBS). When the wound area at 0 hour from the start of culture was 100%, the percentages of wound area at 24 and 48 hours after culture were determined. […]

Data set [3] shares this test system. Kind of data set: Infiltration assay (Matrigel Invasion Chambers). The note with it: 20 pmol/cell culture insert, 48 hours, versus control miRNA, FIG. 15. How it is done: The infiltration assay was performed using BD Matrigel Invasion Chambers, 12 Chambers per 24-Well Plate (BD Biosciences). First, […] of RPMI medium (containing 10% by volume FBS) was added in the wells of a companion plate. Furthermore, in a cell culture insert having a Matrigel basement membrane, a mixture of human large bowel cancer cells (DLD1 line) at 1×10^6 cells/well, lipofectamin RNAiMAX Regent (final concentration in the cell culture insert: 2 μL/ml) and hsa-miR-3065-3p (final concentration in the cell culture insert: 20 pmol/cell culture insert) was added, followed by culture for 48 hours. Thereafter, the cell culture insert was removed, and cells adhering to the outside of the Matrigel basement membrane were fixed with formalin and then stained with hematoxylin to count the cells migrated to the outside of the Matrigel basement membrane. In addition, tests were also performed under the same condition on a case where a control miRNA (SEQ ID NO: 9) was used (control miRNA, negative control) in place of hsa-miR-3065-3p.

Regarding “hsa-miR-3065-3p: human-derived miR-3065-3p; base sequence set forth in SEQ ID NO: 2 as mature miRNA (UCAGCACCAGGAUAUUGUUGGAG; listed as RNA, chemistry not given here; listed as Homo sapiens)”, the “proliferation inhibitory effect on human large bowel cancer cells” value in data set [1] is given as “high proliferation inhibitory effect”. Further, in data set [2], the “decrease in wound area (migration)” value is given as “significantly suppressed”. Besides, the “migration ability of human large bowel cancer cells (cells migrated to the outside of the Matrigel basement membrane)” value in data set [3] was “able to inhibit the migration ability”.
